Data: patent publication US20090253669A1, “Substituted Sulfonamide Compounds” (GRUENENTHAL GmbH, priority 2008, published 2009)

Legend:
[1] = target: T1, human B1R receptor (hB1R) (Homo sapiens, UniProt P46663); assay: FLIPR Ca2+ assay on hB1R-transfected CHO K1 cells, antagonistic action; type: cell-based; details: CHO-K1, 10 μM test substance; agonist Lys-Des-Arg9-bradykinin 0.5 nM; % of maximum achievable inhibition; read-out: hB1R [10 μM] % inhibition
T1 construct: host or cells: CHO K1 cells
T1 sequence (P46663 1-353): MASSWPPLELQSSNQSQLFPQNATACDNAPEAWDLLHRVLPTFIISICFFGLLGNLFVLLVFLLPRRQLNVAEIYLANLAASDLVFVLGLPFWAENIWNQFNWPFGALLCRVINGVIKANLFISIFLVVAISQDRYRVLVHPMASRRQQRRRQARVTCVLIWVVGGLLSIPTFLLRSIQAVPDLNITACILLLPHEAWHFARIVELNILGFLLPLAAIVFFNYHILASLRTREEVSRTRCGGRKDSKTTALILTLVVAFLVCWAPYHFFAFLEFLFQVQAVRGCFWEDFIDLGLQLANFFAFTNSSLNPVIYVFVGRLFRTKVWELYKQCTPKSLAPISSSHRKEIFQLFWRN

[2] = target: T2, B1R receptor of the rat (rB1R) (Rattus norvegicus, UniProt P97583); assay: FLIPR Ca2+ assay on rB1R-transfected CHO K1 cells, antagonistic action; type: cell-based; details: CHO-K1, 10 μM test substance; agonist Des-Arg9-bradykinin 100 nM; % of maximum achievable inhibition; read-out: rB1R [10 μM] % inhibition
T2 construct: host or cells: CHO K1 cells
T2 sequence (P97583 1-337): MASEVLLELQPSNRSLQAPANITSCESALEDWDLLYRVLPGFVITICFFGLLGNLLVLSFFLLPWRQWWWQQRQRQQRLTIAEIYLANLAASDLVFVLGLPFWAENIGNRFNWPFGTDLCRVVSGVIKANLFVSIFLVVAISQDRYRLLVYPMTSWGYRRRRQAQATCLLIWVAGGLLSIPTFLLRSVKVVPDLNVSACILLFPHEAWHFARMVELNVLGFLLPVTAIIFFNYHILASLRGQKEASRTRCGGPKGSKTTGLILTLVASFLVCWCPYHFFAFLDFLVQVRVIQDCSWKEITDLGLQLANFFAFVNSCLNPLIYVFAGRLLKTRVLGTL

Row | SMILES | inhibition at 10 µM [1] [%] | inhibition at 10 µM [2] [%]
1 | COc1cc(C)c(S(=O)(=O)N2CCCCC2COCCC(=O)N2CCC(c3cccc(F)c3)(N3CCN(C)CC3)CC2)c(C)c1 (stereo not drawn) [Compound 226, 1-(4-(3-Fluorophenyl)-4-(4-methylpiperazin-1-yl)piperidin-1-yl)-3-((1-(4-methoxy-2,6-dimethylphenylsulfonyl)piperidin-2-yl)methoxy)propan-1-one] | 100 | 100
2 | COc1cc(C)c(S(=O)(=O)N2CCCCC2CCOCC(=O)N2CCC(c3cccc(F)c3)(N3CCN(C)CC3)CC2)c(C)c1 (stereo not drawn) [Compound 227, 1-(4-(3-Fluorophenyl)-4-(4-methylpiperazin-1-yl)piperidin-1-yl)-2-(2-(1-(4-methoxy-2,6-dimethylphenylsulfonyl)piperidin-2-yl)ethoxy)ethanone] | 100 | 99
3 | CN1CCN(C2(c3cccc(F)c3)CCN(C(=O)COCC3CCc4ccccc4N3S(=O)(=O)c3ccc4ccccc4c3)CC2)CC1 (stereo not drawn) [Compound 228, 1-(4-(3-Fluorophenyl)-4-(4-methylpiperazin-1-yl)piperidin-1-yl)-2-((1-(naphthalen-2-ylsulfonyl)-1,2,3,4-tetrahydroquinolin-2-yl)methoxy)ethanone] | 100 | 101
